The text below walks through data of patent US20220324865A1 (Bayer Aktiengesellschaft, priority 2018, published 2022).

The structures appear in SMILES notation. pIC50: −log10 of the molar value. Where a name gives a salt, the structure may show the parent alone.

The target in this experiment is T1, human EP3 receptor (Homo sapiens, UniProt P43115).
T1 construct: expressed in transfected cells; host or cells: CHO K1 (Chinese Hamster Ovary), stably co-transfected with Galpha16 and mitochondrial clytin
T1 sequence (P43115 1-390): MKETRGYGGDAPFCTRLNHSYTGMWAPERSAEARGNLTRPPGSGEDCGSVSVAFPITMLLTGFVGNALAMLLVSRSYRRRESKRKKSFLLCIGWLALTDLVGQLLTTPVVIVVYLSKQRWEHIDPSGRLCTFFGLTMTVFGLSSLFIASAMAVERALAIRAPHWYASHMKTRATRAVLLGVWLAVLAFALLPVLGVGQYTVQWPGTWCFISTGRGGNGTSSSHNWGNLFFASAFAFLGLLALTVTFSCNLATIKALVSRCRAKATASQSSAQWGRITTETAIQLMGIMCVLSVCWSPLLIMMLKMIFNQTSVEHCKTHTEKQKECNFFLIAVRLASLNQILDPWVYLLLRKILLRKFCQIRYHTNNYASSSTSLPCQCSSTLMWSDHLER
The experiment can be described thus: Cellular in vitro assay for determining EP3 receptor activity (human EP3 cell line, sulprostone-stimulated calcium luminescence). It is filed as cell-based. Particulars: CHO cells expressing human EP3 and mitochondrial Clytin; antagonist mode, sulprostone at EC50; read-out: EP3 CHO mtCLY ANTAG IC50. The method in brief: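 CHO K1 cells stably expressing human EP3 with Gα16 and mitochondrial Clytin, loaded overnight with coelenterazine. Compounds added 10 min before sulprostone at its EC50; antagonism read immediately as reduced calcium-driven luminescence, quadruplicate points.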
As for `Cc1cccc2ncc(-c3cn4nc(C(=O)NC5(c6ccccc6)CC5)c(C(C)C)c4c(=O)[nH]3)cc12` [Example 4-43, 6-(5-Methylquinolin-3-yl)-4-oxo-N-(1-phenylcyclopropyl)-3-(propan-2-yl)-4,5-dihydropyrazolo[1,5-a]pyrazine-2-carboxamide], the pIC50 was 9.08.

For `O=C(NCCN(CC(F)F)C1CC1)c1nn2cc(-c3ccc4ccccc4c3)[nH]c(=O)c2c1C(F)(F)F` [6-527], the pIC50 was 8.47.

In the case of `Cc1ccc(-c2cn3nc(C(=O)N[C@@H](c4ccc(F)cc4)C(F)(F)CO)cc3c(=O)[nH]2)cc1F` [6-645], the negative logarithm of the IC50 (pIC50) is 8.22.

For `Cc1ccc(-c2cn3nc(C(=O)N[C@@H](c4ccc(F)cc4)C(C)(C)O)c(C)c3c(=O)[nH]2)c(F)c1F` [Example 1-163, 6-(2,3-Difluoro-4-methylphenyl)-N-[(1S)-1-(4-fluorophenyl)-2-hydroxy-2-methylpropyl]-3-methyl-4-oxo-4,5-dihydropyrazolo[1,5-a]pyrazine-2-carboxamide], the negative logarithm of the IC50 (pIC50) was 8.11.

Consider `C[C@@H](NC(=O)c1cc2c(=O)[nH]c(-c3ccc4c(c3)COCC4)cn2n1)c1ccc(F)cc1` [Example 1-112, 6-(3,4-Dihydro-1H-2-benzopyran-7-yl)-N-[(1R)-1-(4-fluorophenyl)ethyl]-4-oxo-4,5-dihydropyrazolo[1,5-a]pyrazine-2-carboxamide], for which the pIC50 was 8.47.

Turning to `Cc1ccc(-c2cn3nc(C(=O)NCC(O)C(F)(F)F)c(C4CC4)c3c(=O)[nH]2)cc1C` (racemic) [6-435], the negative-log IC50 (pIC50) is 9.59.

In the case of `COc1ccc(C(CCO)NC(=O)c2cc3c(=O)[nH]c(-c4ccc(C)c(C(F)(F)F)c4)cn3n2)cc1` (stereo not drawn) [6-32], the pIC50 was 8.12.

Take `CC(NC(=O)c1nn2cc(-c3ccc4ccccc4c3)[nH]c(=O)c2c1C(F)(F)F)c1ccc(OCC(F)(F)F)cn1` (stereo not drawn) [Example 1-30, 6-(2-Naphthyl)-4-oxo-N-[1-[5-(2,2,2-trifluoroethoxy)-2-pyridyl]ethyl]-3-(trifluoromethyl)-5H-pyrazolo[1,5-a]pyrazine-2-carboxamide trifluoroacetic acid salt]: the negative-log IC50 (pIC50) is 8.39.

On to `C[C@H](NC(=O)c1cc2c(=O)[nH]c(-c3ccc4ccccc4c3)cn2n1)c1ccc(F)cc1` [6-79], for which the pIC50 was 8.34.

As to `CCc1ccc(C(C)NC(=O)c2nn3c(C)c(-c4ccc5ccccc5c4)[nH]c(=O)c3c2C)cc1` (stereo not drawn) [Example 3-26, N-[1-(4-Ethylphenyl)ethyl]-3,7-dimethyl-6-(2-naphthyl)-4-oxo-5H-pyrazolo[1,5-a]pyrazine-2-carboxamide], the pIC50 was 8.38.

For the molecule `O=C(NC(c1ccc(F)cc1)C1(O)CC1)c1nn2cc(-c3ccc(Cl)c(F)c3)[nH]c(=O)c2c1C1CC1` (single isomer, unassigned) [6-97], the pIC50 is 8.49.

As for `COc1ccc(C2(NC(=O)c3nn4cc(-c5ccc(Cl)c(C)c5)[nH]c(=O)c4c3C(F)(F)F)CN(C)C2)cc1` [6-213], the pIC50 is 8.50.

Consider `COCc1c(C(=O)NC2(c3ccc(F)cc3)CN(C)C2)nn2cc(-c3ccc4c(c3)OCCO4)[nH]c(=O)c12` [6-628], for which the pIC50 is 8.18.

As for `Cc1ccc(-c2cn3nc(C(=O)NC(C)(C)C4CC4)c(C4CC4)c3c(=O)[nH]2)cc1Cl` [6-280], the negative logarithm of the IC50 (pIC50) was 8.82.

In the case of `O=C(NCCc1ccc(F)cc1)c1cc2c(=O)[nH]c(-c3ccc4ccccc4c3)cn2n1` [Example 2-7, N-[2-(4-Fluorophenyl)ethyl]-6-(2-naphthyl)-4-oxo-4,5-dihydropyrazolo[1,5-a]pyrazine-2-carboxamide], the pIC50 is 8.33.

Consider `Cc1ccc(-c2cn3nc(C(=O)N[C@@H](C)c4ccc(F)cc4)cc3c(=O)[nH]2)cc1Cl` [6-82], for which the negative logarithm of the IC50 (pIC50) was 8.74.

For the molecule `O=C(NCC(O)C(F)(F)F)c1nn2cc(-c3ccc(Cl)c(Cl)c3)[nH]c(=O)c2c1C1CC1` (racemic) [6-415], the pIC50 was 8.98.

Take `O=C(N[C@H](CCO)c1ccc(F)cc1)c1nn2cc(-c3ccc4ccccc4c3)[nH]c(=O)c2c1C(F)(F)F` [Example 1-17, N-[(1R)-1-(4-Fluorophenyl)-3-hydroxpropyl]-6-(naphthalen-2-yl)-4-oxo-3-(trifluoromethyl)-4,5-dihydropyrazolo[1,5-a]pyrazine-2-carboxamide]: the negative logarithm of the IC50 (pIC50) was 9.24.

For the molecule `CC[C@@H](C)NC(=O)c1nn2cc(-c3cnc4cccc(C)c4c3)[nH]c(=O)c2c1C(F)(F)F` [6-547], the negative-log IC50 (pIC50) was 8.11.

On to `COc1ccc(C(C)NC(=O)c2nn3cc(-c4ccc5ccccc5c4)[nH]c(=O)c3c2C#N)cn1` (stereo not drawn) [Example 3-50, 3-Cyano-N-[1-(6-methoxy-3-pyridyl)ethyl]-6-(2-naphthyl)-4-oxo-5H-pyrazolo[1,5-a]pyrazine-2-carboxamide], for which the pIC50 is 8.76.

Consider `Cc1cccc2ncc(-c3cn4nc(C(=O)Nc5cnn(C)c5)c(C(C)C)c4c(=O)[nH]3)cc12` [Example 4-24, N-(1-Methyl-1H-pyrazol-4-yl)-6-(5-methylquinolin-3-yl)-4-oxo-3-(propan-2-yl)-4,5-dihydropyrazolo[1,5-a]pyrazine-2-carboxamide], for which the pIC50 was 8.94.

Turning to `CCCc1c(C(=O)N[C@H](C)c2ccc(F)cc2)nn2cc(-c3ccc(C)c(C)c3)[nH]c(=O)c12` [6-614], the pIC50 is 9.09.

Regarding `CCN1CCC(NC(=O)c2nn3cc(-c4ccc(Cl)c(C)c4)[nH]c(=O)c3c2C2CC2)(C(F)(F)F)C1` (single isomer, unassigned) [6-293], the pIC50 was 8.24.

With `Cc1cc(-c2cn3nc(C(=O)N[C@@H](c4ccc(F)cc4)[C@@H](O)C(F)(F)F)c(C4CC4)c3c(=O)[nH]2)ccc1Cl` [6-316], the negative logarithm of the IC50 (pIC50) is 9.13.

For `COc1ccc(C(C)NC(=O)c2cc3c(=O)[nH]c(-c4ccc(C)c(C)c4)cn3n2)cn1` (stereo not drawn) [Example 5-4, 6-(3,4-Dimethylphenyl)-N-[1-(6-methoxypyridin-3-yl)ethyl]-4-oxo-4,5-dihydropyrazolo[1,5-a]pyrazine-2-carboxamide], the negative-log IC50 (pIC50) was 8.60.

Consider `Cc1cc(-c2cn3nc(C(=O)N[C@@H](C)C4CC4)c(C(F)(F)C(F)(F)F)c3c(=O)[nH]2)ccc1Cl` [6-478], for which the negative logarithm of the IC50 (pIC50) was 8.92.

With `CCn1cc(Cl)c(CNC(=O)c2nn3c(C)c(-c4ccc5ccccc5c4)[nH]c(=O)c3c2C)n1` [Example 3-8, N-[(4-Chloro-1-ethyl-1H-pyrazol-3-yl)methyl]-3,7-dimethyl-6-(naphthalen-2-yl)-4-oxo-4,5-dihydropyrazolo[1,5-a]pyrazine-2-carboxamide], the negative logarithm of the IC50 (pIC50) is 8.54.

On to `O=C(N[C@H]1c2ccccc2C[C@H]1O)c1cc2c(=O)[nH]c(-c3ccc4ccccc4c3)cn2n1` [6-72], for which the pIC50 is 8.10.

With `CCn1cc(CNC(=O)c2nn3cc(-c4ccc5ccccc5c4)[nH]c(=O)c3c2Cl)c(C)n1` [6-10], the pIC50 was 8.85.

`Cc1c(C(=O)NCc2cccc(CN3CCCC3)c2)nn2c(C)c(-c3ccc4ccccc4c3)[nH]c(=O)c12` [Example 3-36, 3,7-Dimethyl-6-(naphthalen-2-yl)-4-oxo-N-({3-[(pyrrolidin-1-yl)methyl]phenyl}methyl)-4,5-dihydropyrazolo[1,5-a]pyrazine-2-carboxamide]: the negative-log IC50 (pIC50) was 8.18.

With `Cc1cccc2ncc(-c3cn4nc(C(=O)N[C@H](CCO)c5ccc(F)cc5)cc4c(=O)[nH]3)cc12` [Example 1-113, N-[(1R)-1-(4-Fluorophenyl)-3-hydroxypropyl]-6-(5-methylquinolin-3-yl)-4-oxo-4,5-dihydropyrazolo[1,5-a]pyrazine-2-carboxamide], the negative logarithm of the IC50 (pIC50) is 8.42.

For `Cc1ccc(-c2cn3nc(C(=O)N[C@H](C)C(C)C)c(C(F)(F)F)c3c(=O)[nH]2)cc1Cl` [6-189], the pIC50 is 8.87.

As to `CC[C@@H](C)NC(=O)c1nn2cc(-c3ccc(C)c(Cl)c3)[nH]c(=O)c2c1C` [Example 1-149, N-[(2R)-Butan-2-yl]-6-(3-chloro-4-methylphenyl)-3-methyl-4-oxo-4,5-dihydropyrazolo[1,5-a]-pyrazine-2-carboxamide], the negative-log IC50 (pIC50) is 8.63.

For `Cc1cccc2ncc(-c3cn4nc(C(=O)NC(C)c5ccc(S(N)(=O)=O)cc5)c(C(C)C)c4c(=O)[nH]3)cc12` (stereo not drawn) [Example 4-53, 3-Isopropyl-6-(5-methyl-3-quinolyl)-4-oxo-N-[1-(4-sulfamoylphenyl)ethyl]-5H-pyrazolo[1,5-a]pyrazine-2-carboxamide], the pIC50 is 8.96.

In the case of `COc1ccc(C(C)NC(=O)c2nn3c(C)c(-c4ccc5ccccc5c4)[nH]c(=O)c3c2C)cn1` (stereo not drawn) [Example 3-38, N-[1-(6-Methoxy-3-pyridyl)ethyl]-3,7-dimethyl-6-(2-naphthyl)-4-oxo-5H-pyrazolo[1,5-a]pyrazine-2-carboxamide], the pIC50 is 8.73.

Consider `Cc1cc(-c2cn3nc(C(=O)N[C@@H](C)C4CC4)c(C4CC4)c3c(=O)[nH]2)ccc1Cl` [6-296], for which the negative-log IC50 (pIC50) is 8.80.

On to `CC(C)(O)[C@@H](NC(=O)c1nn2cc(-c3ccc(Cl)c(F)c3)[nH]c(=O)c2c1C1CCC1)c1ccc(F)cc1` [6-572], for which the negative-log IC50 (pIC50) was 8.55.

On to `O=C(NCC(O)C(F)(F)F)c1nn2cc(-c3ccc4c(c3)OCCO4)[nH]c(=O)c2c1C(F)(F)F` (single isomer, unassigned) [6-532], for which the negative logarithm of the IC50 (pIC50) is 8.05.

Regarding `Cc1cccc2ncc(-c3cn4nc(C(=O)NCC(N)=O)c(C(C)C)c4c(=O)[nH]3)cc12` [Example 4-31, N-(2-Amino-2-oxoethyl)-6-(5-methylquinolin-3-yl)-4-oxo-3-(propan-2-yl)-4,5-dihydropyrazolo[1,5-a]pyrazine-2-carboxamide], the pIC50 is 8.13.
